pEC50: −log10 of the molar value.
These molecules were tested against T1, h FPR2 (Homo sapiens, UniProt P25090) (assay: Agonistic activity in hFPR2-Aq-CHO cells (FLIPR Calcium 5 fluorescence assay)). Details: 11 point half log dilution, final assay concentration from 10µM.
T1 construct: expressed in transfected cells
T1 sequence (P25090 1-351): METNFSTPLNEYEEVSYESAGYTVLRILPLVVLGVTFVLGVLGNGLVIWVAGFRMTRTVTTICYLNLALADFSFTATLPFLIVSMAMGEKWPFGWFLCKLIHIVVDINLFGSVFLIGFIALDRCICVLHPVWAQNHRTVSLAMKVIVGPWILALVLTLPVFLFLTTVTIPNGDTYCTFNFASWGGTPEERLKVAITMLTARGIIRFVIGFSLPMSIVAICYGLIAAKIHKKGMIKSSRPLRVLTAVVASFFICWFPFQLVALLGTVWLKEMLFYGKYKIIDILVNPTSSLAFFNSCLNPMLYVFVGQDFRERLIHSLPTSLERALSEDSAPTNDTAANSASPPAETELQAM
Format: cell-based
Summary of the method: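 EC50 reflects the compound-evoked rise in Calcium 5 fluorescence over basal, recorded for 5 min on FLIPR and compared with no-compound wells. Dye-loaded hFPR2-Aq-CHO cells received half-log dilutions from 10 µM to 100 pM final in pH 7.4 HBSS buffer.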
`O=C(Nc1ccccc1)N[C@@H]1CCN(CC2CNC2)C[C@H]1c1ccc(Cl)cn1` (relative stereo) [Ex-186, trans-1-(1'-azetidin-3-ylmethyl-5-chloro-1',2',3',4',5',6'-hexahydro-[2,3']bipyridinyl-4'-yl)-3-phenyl-urea] showed a pEC50 of 7.57. `COCCCN1CC[C@@H](NC(=O)Nc2ccc(Cl)cc2)[C@H](c2ncc(OC)cc2F)C1` (relative stereo) [Ex-193, trans-1-(4-chlorophenyl)-3-[3-fluoro-5-methoxy-1'-(3-methoxy-propyl)-1',2',3',4',5',6'-hexahydro-[2,3']bipyridinyl-4'-yl]-urea] was tested, and the pEC50 was 9.00. In the case of `COc1ccc([C@@H]2CN(CC3(O)COC3)CC[C@H]2NC(=O)Nc2ccc(Cl)cc2)nc1` (relative stereo) [Ex-194, trans-1-(4-chloro-phenyl)-3-[1'-(3-hydroxy-oxetan-3-ylmethyl)-5-methoxy-1',2',3',4',5',6'-hexahydro-[2,3']bipyridinyl-4'-yl]-urea], the pEC50 was 8.89. With `COc1cnc([C@@H]2CN(CCS(C)(=O)=O)CC[C@H]2NC(=O)Nc2ccc(Cl)cc2)c(F)c1` (relative stereo) [Ex-196, trans-1-(4-chloro-phenyl)-3-[3-fluoro-1'-(2-methanesulfonyl-ethyl)-5-methoxy-1',2',3',4',5',6'-hexahydro-[2,3']bipyridinyl-4'-yl]-urea] the pEC50 was 9.15. Molecule `COc1cnc([C@@H]2CN(CCCO)CC[C@H]2NC(=O)Nc2ccc(Cl)cc2)c(F)c1` (relative stereo) [Ex-197, trans-1-(4-chloro-phenyl)-3-[3-fluoro-1'-(3-hydroxy-propyl)-5-methoxy-1',2',3',4',5',6'-hexahydro-[2,3']bipyridinyl-4'-yl]-urea] has a pEC50 of 9.05. With `COCCN1CC[C@@H](NC(=O)Nc2ccc(Cl)cc2)[C@H](c2ncc(OC)cc2F)C1` (relative stereo) [Ex-198, trans-1-(4-chloro-phenyl)-3-[3-fluoro-5-methoxy-1'-(2-methoxy-ethyl)-1',2',3',4',5',6'-hexahydro-[2,3']bipyridinyl-4'-yl]-urea] the pEC50 was 9.40. `COc1cnc([C@@H]2CN(CCO)CC[C@H]2NC(=O)Nc2ccc(Cl)cc2)c(F)c1` (relative stereo) [Ex-199, trans-1-(4-chloro-phenyl)-3-[3-fluoro-1'-(2-hydroxy-ethyl)-5-methoxy-1',2',3',4',5',6'-hexahydro-[2,3']bipyridinyl-4'-yl]-urea] gave a pEC50 of 9.30. `COc1cnc([C@@H]2CN(CC3COC3)CC[C@H]2NC(=O)Nc2ccc(Cl)cc2)c(F)c1` (relative stereo) [Ex-200, trans-1-(4-chloro-phenyl)-3-(3-fluoro-5-methoxy-1'-oxetan-3-ylmethyl-1',2',3',4',5',6'-hexahydro-[2,3']bipyridinyl-4'-yl)-urea] gave a pEC50 of 9.40. Molecule `COc1ccc([C@@H]2CN(CC3(OC)CC3)CC[C@H]2NC(=O)Nc2ccc(Cl)cc2)nc1` (relative stereo) [Ex-201, trans-1-(4-chloro-phenyl)-3-[5-methoxy-1'-(1-methoxy-cyclopropylmethyl)-1',2',3',4',5',6'-hexahydro-[2,3']bipyridinyl-4'-yl]-urea] has a pEC50 of 9.22. With `COc1ccc([C@@H]2CN(CC3COC3)CC[C@H]2NC(=O)Nc2cc(C)ns2)nc1` (relative stereo) [Ex-204, trans-1-(5-methoxy-1'-oxetan-3-ylmethyl-1',2',3',4',5',6'-hexahydro-[2,3']bipyridinyl-4'-yl)-3-(3-methyl-isothiazol-5-yl)-urea] the pEC50 was 8.40. With `COc1ccc([C@@H]2CN(CC3CC(C)(O)C3)CC[C@H]2NC(=O)Nc2ccc(Cl)cc2)nc1` (relative stereo) [Ex-207, trans-1-(4-chloro-phenyl)-3-[1'-(3-hydroxy-3-methyl-cyclobutylmethyl)-5-methoxy-1',2',3',4',5',6'-hexahydro-[2,3']bipyridinyl-4'-yl]-urea] the pEC50 was 8.05. With `COc1cnc([C@@H]2CN(CC(C)(C)O)CC[C@H]2NC(=O)Nc2ccc(Cl)cc2)c(F)c1` (relative stereo) [Ex-208, trans-1-(4-chloro-phenyl)-3-[3-fluoro-1'-(2-hydroxy-2-methyl-propyl)-5-methoxy-1',2',3',4',5',6'-hexahydro-[2,3']bipyridinyl-4'-yl]-urea] the pEC50 was 9.15. Molecule `COc1cnc([C@@H]2CN(CC3CC3)CC[C@H]2NC(=O)Nc2ccc(Cl)cc2)c(F)c1` (relative stereo) [Ex-209, trans-1-(4-chloro-phenyl)-3-(1'-cyclopropylmethyl-3-fluoro-5-methoxy-1',2',3',4',5',6'-hexahydro-[2,3']bipyridinyl-4'-yl)-urea] has a pEC50 of 9.52. Molecule `COc1ccc([C@@H]2CN(c3ccnc(C)n3)CC[C@H]2NC(=O)Nc2ccc(Cl)cc2)nc1` (relative stereo) [Ex-210, trans-1-(4-chloro-phenyl)-3-[5-methoxy-1'-(2-methyl-pyrimidin-4-yl)-1',2',3',4',5',6'-hexahydro-[2,3']bipyridinyl-4'-yl]-urea] has a pEC50 of 8.30. `COc1ccc([C@@H]2CN(c3ccnc(C)n3)CC[C@H]2NC(=O)Nc2cc(C)ns2)nc1` (relative stereo) [Ex-211, trans-1-[5-methoxy-1'-(2-methyl-pyrimidin-4-yl)-1',2',3',4',5',6'-hexahydro-[2,3']bipyridinyl-4'-yl]-3-(3-methyl-isothiazol-5-yl)-urea] gave a pEC50 of 8.15. `COc1cnc([C@@H]2CN(CCCN(C)C)CC[C@H]2NC(=O)Nc2ccc(Cl)cc2)c(F)c1` (relative stereo) [Ex-212, trans-1-(4-chloro-phenyl)-3-[1'-(3-dimethylamino-propyl)-3-fluoro-5-methoxy-1',2',3',4',5',6'-hexahydro-[2,3']bipyridinyl-4'-yl]-urea] showed a pEC50 of 9.52. Work on `COc1cnc([C@@H]2CN(CCN(C)C)CC[C@H]2NC(=O)Nc2ccc(Cl)cc2)c(F)c1` (relative stereo) [Ex-213, trans-1-(4-chloro-phenyl)-3-[1'-(2-dimethylamino-ethyl)-3-fluoro-5-methoxy-1',2',3',4',5',6'-hexahydro-[2,3']bipyridinyl-4'-yl]-urea] yielded a pEC50 of 8.98. `COc1ccc([C@@H]2CN(CC3(O)COC3)CC[C@H]2NC(=O)Nc2cc(C)ns2)nc1` (relative stereo) [Ex-217, trans-1-[1'-(3-hydroxy-oxetan-3-ylmethyl)-5-methoxy-1',2',3',4',5',6'-hexahydro-[2,3']bipyridinyl-4'-yl]-3-(3-methyl-isothiazol-5-yl)-urea] showed a pEC50 of 8.22. For `COc1cnc([C@@H]2CN(C3COC3)CC[C@H]2NC(=O)Nc2ccc(Cl)cc2)c(F)c1` (relative stereo) [Ex-218, trans-1-(4-chloro-phenyl)-3-(3-fluoro-5-methoxy-1'-oxetan-3-yl-1',2',3',4',5',6'-hexahydro-[2,3']bipyridinyl-4'-yl)-urea], the pEC50 was 8.40. Molecule `COc1ccc([C@@H]2CN(C(C)(C)CO)CC[C@H]2NC(=O)Nc2ccc(Cl)cc2)nc1` (relative stereo) [Ex-219, trans-1-(4-chloro-phenyl)-3-[1'-(2-hydroxy-1,1-dimethyl-ethyl)-5-methoxy-1',2',3',4',5',6'-hexahydro-[2,3']bipyridinyl-4'-yl]-urea] has a pEC50 of 7.42. Work on `COc1ccc([C@@H]2CN(CC3(O)CCC3)CC[C@H]2NC(=O)Nc2ccc(Cl)cc2)nc1` (relative stereo) [Ex-220, trans-1-(4-chloro-phenyl)-3-[1'-(1-hydroxy-cyclobutylmethyl)-5-methoxy-1',2',3',4',5',6'-hexahydro-[2,3']bipyridinyl-4'-yl]-urea] yielded a pEC50 of 9.40. With `COc1cnc([C@@H]2CN(CC3CCC(O)CC3)CC[C@H]2NC(=O)Nc2ccc(Cl)cc2)c(F)c1` (relative stereo) [Ex-221, trans-1-(4-chloro-phenyl)-3-[3-fluoro-1'-(4-hydroxy-cyclohexylmethyl)-5-methoxy-1',2',3',4',5',6'-hexahydro-[2,3']bipyridinyl-4'-yl]-urea] the pEC50 was 9.05. `COc1cnc([C@@H]2CN(CC(N)=O)CC[C@H]2NC(=O)Nc2ccc(Cl)cc2)c(F)c1` (relative stereo) [Ex-222, trans-2-{4'-[3-(4-chlorophenyl)-ureido]-3-fluoro-5-methoxy-3',4',5',6'-tetrahydro-2'H-[2,3']bipyridinyl-1'-yl}-acetamide] was tested, and the pEC50 was 9.52. `COc1cnc([C@@H]2CN(CC3CCC(OC)CC3)CC[C@H]2NC(=O)Nc2ccc(Cl)cc2)c(F)c1` (relative stereo) [Ex-223, trans-1-(4-Chloro-phenyl)-3-[3-fluoro-5-methoxy-1'-(4-methoxy-cyclohexylmethyl)-1',2',3',4',5',6'-hexahydro-[2,3']bipyridinyl-4'-yl]-urea] gave a pEC50 of 9.10. In the case of `COc1ccc([C@@H]2CN(c3cncc(C)n3)CC[C@H]2NC(=O)Nc2ccc(Cl)cc2)nc1` (relative stereo) [Ex-224, trans-1-(4-chloro-phenyl)-3-[5-methoxy-1'-(6-methyl-pyrazin-2-yl)-1',2',3',4',5',6'-hexahydro-[2,3']bipyridinyl-4'-yl]-urea], the pEC50 was 8.30. In the case of `COc1ccc([C@@H]2CN(c3cnccn3)CC[C@H]2NC(=O)Nc2ccc(Cl)cc2)nc1` (relative stereo) [Ex-226, trans-1-(4-chloro-phenyl)-3-(5-methoxy-1'-pyrazin-2-yl-1',2',3',4',5',6'-hexahydro-[2,3']bipyridinyl-4'-yl)-urea], the pEC50 was 9.05.

Same assay, conditions: agonistic response at 0.1µM
`COc1ccc([C@@H]2CN(C(=O)CN(C)C)CC[C@H]2NC(=O)Nc2ccc(Cl)cc2)nc1` (relative stereo) [Ex-190, trans-1-(4-chlorophenyl)-3-[1-[2-(dimethylamino)acetyl]-3-(5-methoxypyridin-2-yl)piperidin-4-yl]urea] gave an activation at 0.1 µM of 8%.

Source: EP3789378A1, “PIPERIDINES OR PIPERIDONES SUBSTITUTED WITH UREA AND HETEROARYL” (Grünenthal GmbH, priority 2019, dated 2021)
